Data set [1] deals with T1, CaDHFR (Candida albicans, UniProt P22906).
T1 construct: made in house
T1 sequence (P22906 1-192): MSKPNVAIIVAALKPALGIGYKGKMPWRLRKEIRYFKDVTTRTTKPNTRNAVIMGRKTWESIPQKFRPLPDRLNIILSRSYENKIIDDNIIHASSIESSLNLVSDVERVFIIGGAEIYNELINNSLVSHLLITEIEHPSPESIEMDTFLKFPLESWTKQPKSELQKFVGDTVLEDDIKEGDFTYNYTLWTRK
Kind of data set: DHFR enzyme inhibition (NADPH consumption at 340 nm), C. albicans DHFR. The format is biochemical. The procedure:
(§1) Med. Chem., 17:4866-4872 (2009)). Crystallization of the protein with ligand also followed previously described procedures (Paulsen et al 2011). Data were collected at Brookhaven National Laboratory, beamline X4A (CaDHFR) or X4C (CgDHFR). Molecular replacement was used to determine all three structures. Initial phase information was obtained using Phaser; electron density and model building used Coot. Refinement was carried out with Refmac 5 as part of the CCP4 package. Procheck was used to assess model quality.
(§2) Enzyme inhibition was determined by monitoring the consumption of NADPH at 340 nm for one minute. Reactions were performed with 20 mM TES pH 7.0, 50 mM KCl, 10 mM 2-mercaptoethanol, 0.5 mM EDTA and 1 mg/mL bovine serum albumin. Saturating concentrations of cofactor (100 μM NADPH) and substrate (100 μM dihydrofolate) were used with a limiting concentration of enzyme. All assays were conducted in triplicate at 25° C.

For data set [2], the system named is Human MCF-10. Put plainly: Mammalian cell cytotoxicity. The class given is cell-based.
Data set [3] addresses T2, hDHFR (Homo sapiens, UniProt P00374).
T2 sequence (P00374 1-187): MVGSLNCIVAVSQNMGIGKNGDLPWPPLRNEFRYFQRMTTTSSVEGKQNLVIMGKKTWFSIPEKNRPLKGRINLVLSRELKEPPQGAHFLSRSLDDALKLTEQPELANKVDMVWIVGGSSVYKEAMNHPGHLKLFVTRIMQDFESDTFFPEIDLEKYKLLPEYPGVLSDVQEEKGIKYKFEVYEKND
Kind of data set: DHFR enzyme inhibition (NADPH consumption at 340 nm), human DHFR. The class given is biochemical. Here is the method: as §2

The target in data set [4] is T3, CgDHFR (Candida glabrata, UniProt Q6FPH0).
T3 construct: made in house
T3 sequence (Q6FPH0 entry or part of it): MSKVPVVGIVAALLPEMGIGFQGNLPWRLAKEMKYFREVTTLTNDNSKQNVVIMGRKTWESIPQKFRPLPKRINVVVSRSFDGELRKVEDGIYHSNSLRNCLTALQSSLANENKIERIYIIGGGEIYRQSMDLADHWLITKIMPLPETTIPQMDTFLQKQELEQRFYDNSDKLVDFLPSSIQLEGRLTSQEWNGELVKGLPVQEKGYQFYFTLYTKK
Kind of data set: DHFR enzyme inhibition (NADPH consumption at 340 nm), C. glabrata DHFR. The note with it: 100 μM NADPH, 100 μM dihydrofolate, pH 7.0, 25° C., triplicate. The class given is biochemical. Here is the method: as §1, §2

For data set [5], the system named is C. albicans (strain SC5314). Kind of data set: Antifungal activity (MIC), Alamar Blue cell viability. The class given is cell-based, Candida albicans. The following applies: strain SC5314, GSB media, Alamar Blue after 24 hour incubation; for MIC: Candida albicans, SC5314, 24 h. Here is the method: (§3) Stock cultures of C. albicans (strain SC5314) or C. glabrata (strain NCCLS84), thawed from storage in 50% glycerol at −80° C., were streaked on YM agar plates and grown at 37° C. for 48 hours. Isolated colonies from the plate were suspended in 100 mL of glucose-salt-biotin (GSB) media containing ammonia chloride (2 g), potassium phosphate (0.35 g), magnesium sulfate (0.24 g), sodium citrate (0.3 g), piperazine-N,N′-bis[2-ethanesulfonic acid] (3.4 g), biotin (40 mg) and glucose (20 g) in 1 L of water at a final pH of 7.1. […] An aliquot was removed from the shake flask culture, diluted to between 1×10^5 and 1×10^6 cells/mL in GSB media, and added to 96 well test plates (100 μL per well) containing test compounds dispensed in DMSO (1 μL). Amphotericin B and itraconazole were used as controls. C. albicans cell viability was determined by the addition of Alamar Blue (10 μL) to each well after a 24 hour incubation period. […] The XTT Cell Proliferation kit (ATCC) was used as an alternative. Tetrazolium dye, XTT, along with an electron activating reagent (50 μL) was added to 96 well plates and incubated for 24 hours at 37° C. Cell viability is indicated by a color change from a dark orange to a bright orange color that can be detected at […].
For orientation: The colour change of resazurin is a common sign of viable cells or microbes.

For data set [6], the system named is C. glabrata (strain NCCLS84). Put plainly: Antifungal activity (MIC), XTT cell viability. The format is cell-based, Candida glabrata. The following applies: strain NCCLS84, GSB media. The procedure:
as §3
(Formazan colour is commonly taken as a measure of viable cells.)

Data set [7] in a line: Kinetic solubility. The format is physicochemical. The following applies: water, 0.2% DMSO, room temperature 30 min, HPLC. The procedure: Compounds were initially dissolved as […] dimethyl sulfoxide (DMSO) solutions and diluted in filtered water in the presence or absence of 200 μg/ml methylcellulose (METHOCEL A4M; Dow Corning, Midland, Mich.). Final concentration of DMSO of all samples is 0.2%. All samples were incubated at room temperature for 30 min and centrifuged for 10 min at 15,000 rpm. Supernatant of the samples were analyzed by reversed phase HPLC. The mobile phase consisted of 50% acetonitrile (ACN) and 50% potassium phosphate buffer (50 mM, pH 7.0), using an isocratic flow rate of 1.5 ml/min. Solubility was determined as the maximal concentration for which absorption is linearly related to the log of the concentration.

[8] abbreviates: 100 μM NADPH, 100 μM dihydrofolate, pH 7.0, 25° C., triplicate.
Where [9] appears, read: MCF10, Human MCF-10 cells, read-out: IC50 Human MCF-10.

Each structure is given as a SMILES string. ≈ marks a conversion by molar mass, not a printed value. Where two headings read alike, the source gives them in different places.

One may read the IC50 as the midpoint of a concentration-inhibition curve. As a reminder, the melting point is the temperature of the solid-liquid transition. For the molecule `CCc1nc(N)nc(N)c1C#CC(C)c1ccc(-c2ccc(O)cc2)cc1OC` (centres unmarked) [Compound 30, 4′-[3-(2,4-Diamino-6-ethyl-pyrimidin-5-yl)-1-methyl-prop-2-ynyl]-3′-methoxy-biphenyl-4-ol], the melting point was 188.1 to 189.3 °C. Further, the IC50 in data set [1] (setting [8]) worked out at 0.039 µM. In addition, in data set [2] (Homo sapiens, MCF10, read-out: IC50 Human MCF-10), the IC50 was 148 µM. For the same molecule, the midpoint of inhibition in data set [3] (setting [8]), the IC50, lay at 0.136 µM.
Take `CCc1nc(N)nc(N)c1C#CC(C)c1ccc(-c2ccc(C#N)cc2)cc1OC` (centres unmarked) [Compound 32, 4′-[3-(2,4-Diamino-6-ethyl-pyrimidin-5-yl)-1-methyl-prop-2-ynyl]-3′-methoxy-biphenyl-4-carbonitrile]: the melting point is 130.9 to 133.1 °C. The half-maximal inhibitory concentration (IC50) in data set [1] (setting [8]) was found to be 0.05 µM. For the same molecule, the half-inhibitory concentration (IC50) in data set [2] (setting [9]) amounted to 50 µM. This molecule showed a concentration for half-maximal inhibition (IC50) in data set [3] (setting [8]) of 0.477 µM.
As for `CCc1nc(N)nc(N)c1C#CC(C)c1ccc(-c2ccc(OC(N)=O)cc2)cc1OC` (centres unmarked) [Compound 33, Carbamic acid 4′-[3-(2,4-diamino-6-ethyl-pyrimidin-5-yl)-1-methyl-prop-2-ynyl]-3′-methoxy-biphenyl-4-yl ester], the IC50 in data set [1] (setting [8]) turned out to be 0.018 µM; in data set [3] (setting [8]), 0.17 µM.
On to `CCc1nc(N)nc(N)c1C#CC(C)c1ccc(-c2ccc(C(=O)OC)cc2)cc1OC` (centres unmarked) [Compound 34, 4′-[3-(2,4-Diamino-6-ethyl-pyrimidin-5-yl)-1-methyl-prop-2-ynyl]-3′-methoxy-biphenyl-4-carboxylic acid methyl ester], for which the melting point lay within 168.2 to 170.8 °C. For the same molecule, the IC50 in data set [1] (setting [8]) came to 0.046 µM. For the same molecule, in data set [2] (setting [9]), the IC50 stood at 96 µM. The molecule also had an IC50 in data set [3] (setting [8]) of 0.049 µM.
`CCc1nc(N)nc(N)c1C#CC(C)c1ccc(-c2ccc(N(C)C)cc2)cc1OC` (centres unmarked) [Compound 35, 5-[3-(4′-Dimethylamino-3-methoxy-biphenyl-4-yl)-but-1-ynyl]-6-ethyl-pyrimidine-2,4-diamine] displayed a melting point of 135.2 to 136.1 °C. In data set [1] (pH 7), inhibition was half-maximal at 0.064 µM (IC50). Moreover, inhibition in data set [3] (pH 7) was half-maximal at 0.147 µM (IC50).
Broadly, the MIC is the smallest concentration in the dilution series that meets the test's criterion for growth inhibition. Lower therefore signals inhibition by little substance. The solubility is the concentration that dissolves in the medium under given conditions. With `CCc1nc(N)nc(N)c1C#CC(C)c1ccc(-c2ccccc2)nc1` (centres unmarked) [Compound 46, 6-Ethyl-5-[3-(6-phenyl-pyridin-3-yl)-but-1-ynyl]-pyrimidine-2,4-diamine], in data set [4], half-maximal inhibition (IC50) required 0.023 µM. In addition, in data set [5], the MIC was in the range of 0.2 to 0.78 µg/mL (≈ 0.582 to 2.27 µM) and the “MIC C. albicans” value amounted to 0.39 µg/mL (≈ 1.14 µM). The molecule also yielded an IC50 in data set [3] (setting [8]) of 0.688 µM. For the same molecule, the “MIC C. glabrata” value in data set [6] was found to be 0.78 µg/mL (≈ 2.27 µM). The solubility in data set [7] turned out to be 20 µg/mL (≈ 58.2 µM).
Molecule `CCc1nc(N)nc(N)c1C#CC(C)c1ccc(-c2ccc(C)cc2)nc1` (centres unmarked) [Compound 47, 6-Ethyl-5-[3-(6-p-tolyl-pyridin-3-yl)-but-1-ynyl]-pyrimidine-2,4-diamine] had a melting point of 144 to 146.1 °C. In data set [4], inhibition was half-maximal at 0.027 µM (IC50). For the same molecule, in data set [5], the MIC is 0.2 to 0.78 µg/mL (≈ 0.56 to 2.18 µM) and the “MIC C. albicans” value turned out to be 0.39 µg/mL (≈ 1.09 µM). The molecule also displayed a 50% inhibitory concentration (IC50) in data set [1] (pH 7) of 0.049 µM. The molecule further came in with a concentration for half-maximal inhibition (IC50) in data set [3] (setting [8]) of 0.625 µM. The MIC in data set [6] (Nakaseomyces glabratus) lay within 0.2 to 0.78 µg/mL (≈ 0.56 to 2.18 µM). Also, the “MIC C. glabrata” value in data set [6] turned out to be 0.2 µg/mL (≈ 0.56 µM). Moreover, the solubility in data set [7] was found to be 15 µg/mL (≈ 42 µM).
Regarding `CCc1nc(N)nc(N)c1C#CC(C)c1cnc(-c2ccccc2)nc1` (centres unmarked) [Compound 48, 6-Ethyl-5-[3-(2-phenyl-pyrimidin-5-yl)-but-1-ynyl]-pyrimidine-2,4-diamine], the melting point fell in the range of 161.3 to 162.8 °C. In data set [4], this molecule registered a half-inhibitory concentration (IC50) of 0.022 µM. For the same molecule, in data set [5], the MIC was in the range of 0.2 to 0.78 µg/mL (≈ 0.581 to 2.26 µM) and the “MIC C. albicans” value is 0.19 µg/mL (≈ 0.552 µM). In data set [1] (setting [8]), the half-inhibitory concentration (IC50) came to 0.037 µM. Moreover, the IC50 in data set [2] (setting [9]) stood at 216 µM. In data set [3] (setting [8]), this molecule had an IC50 of 0.18 µM. For the same molecule, the “MIC C. glabrata” value in data set [6] is 0.78 µg/mL (≈ 2.26 µM). The molecule also returned a solubility in data set [7] of 60 µg/mL (≈ 174 µM).
